# From patent US8383581B2, “Short-chain peptides as parathyroid hormone (PTH) receptor agonist” (Cadila Healthcare Limited, priority 2009, dated 2013)
# Where a SMILES comes first, the peptide text is derived from it. [ ]: non-standard residue; d: D form. ξ: configuration not given here. ξαMeBip(2'-Et,4'-OMe) = CCc1cc(OC)ccc1-c1ccc(CC(C)(N)C(=O)O)cc1; αMePhe(2,6-F2) = C[C@](N)(Cc1c(F)cccc1F)C(=O)O; ξαMePhe(2,6-F2) = CC(N)(Cc1c(F)cccc1F)C(=O)O; αMePhe(2-F) = C[C@](N)(Cc1ccccc1F)C(=O)O; ξαMePhe(2-F) = CC(N)(Cc1ccccc1F)C(=O)O; ξαMeW = CC(N)(Cc1c[nH]c2ccccc12)C(=O)O; hhPhe = N[C@@H](CCCc1ccccc1)C(=O)O; hArg = N=C(N)NCCCC[C@H](N)C(=O)O; hCit = NC(=O)NCCCC[C@H](N)C(=O)O; Cit = NC(=O)NCCC[C@H](N)C(=O)O; ξαMeF = CC(N)(Cc1ccccc1)C(=O)O; ξαMeNle = CCCCC(C)(N)C(=O)O; Nle = CCCC[C@H](N)C(=O)O; Orn = NCCC[C@H](N)C(=O)O; ξαMeP = CC1(C(=O)O)CCCN1; Ac5c = NC1(C(=O)O)CCCC1; Ac3c = NC1(C(=O)O)CC1; Aib = CC(C)(N)C(=O)O
# What was measured:
# Format in all cases: in vitro ADME
# [1] = Stability of peptides in human liver microsomes; conditions: human, microsomes; for % degradation of peptides in 24 h when incubated with liver microsomes: 2 μM, pH 7.8
# Procedure, shortened: (§1)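 Peptides at 2 μM final incubated 0–24 h at 37 °C (50 mM triethanolamine-HCl, pH 7.8) in each matrix, matrix level set to degrade ~50% PTH(1-34) in 1 h; TFA-quenched, C18 HPLC at 206 nm with ESI-MS peak identification; percent degradation from peak areas at each time point.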
# [2] = Stability of peptides in simulated intestinal fluid (pH 7.5); conditions: pH 7.5; for half-life (t1/2) in simulated intestinal fluid / half-life: simulated gi fluid; for % degradation of peptides in 24 h when incubated with simulated intestinal fluid: 2 μM
# Procedure, shortened: as §1
# [3] = Stability of peptides in simulated gastric fluid (pH 1.5; HCl, NaCl and Pepsin); conditions: pH 1.5; for % degradation of peptides in 24 h when incubated with simulated gastric fluid: 2 μM; for half-life (t1/2) in simulated gastric fluid / half-life: simulated gi fluid
# [4] = Stability of peptides in human plasma; conditions: human, plasma; for metabolised at 24 h, 2 μM: pH 7.8
# Procedure, shortened: as §1
SMILES,half-life [1] [h],% degradation of peptides in 24 h when incubated with liver microsomes [1] [%],half-life (t1/2) in simulated intestinal fluid [2],% degradation of peptides in 24 h when incubated with simulated intestinal fluid [2] [%],% degradation of peptides in 24 h when incubated with simulated gastric fluid [3] [%],half-life (t1/2) in simulated gastric fluid [3],half-life [4] [h],"metabolised at 24 h, 2 μM [4] [%]",half-life (t1/2) in liver microsomes [1],half-life [2] [h],half-life [3] [h],half-life (t1/2) in human plasma [4]
"CCCC[C@H](NC(=O)[C@](C)(Cc1ccccc1F)NC(=O)[C@H](CCC(N)=O)NC(=O)[C@@H](NC(=O)[C@H](CCC(=O)O)NC(=O)C(C)(C)NC(=O)[C@@H](NC(=O)C(C)(C)N)C(C)C)[C@@H](C)CC)C(=O)N[C@@H](Cc1c[nH]cn1)C(=O)N[C@@H](CCC(N)=O)C(=O)N[C@@H](CCCCNC(=N)N)C(=O)NC(C)(C)C(=O)N[C@@H](CCCNC(N)=O)C(=O)N[C@@](C)(Cc1c(F)cccc1F)C(N)=O [Seq. ID. 142] (H-[Aib]V[Aib]EIQ[αMePhe(2-F)][Nle]HQ[hArg][Aib][Cit][αMePhe(2,6-F2)]-NH2)",1,82,(6) h,50,13,(8) h,8,80,–,–,–,–
CCCC[C@H](NC(=O)C(C)(Cc1ccccc1F)NC(=O)[C@H](CCC(N)=O)NC(=O)[C@@H](NC(=O)[C@H](CCC(=O)O)NC(=O)C1(NC(=O)[C@@H](NC(=O)C2(N)CCCC2)C(C)C)CCCC1)[C@@H](C)CC)C(=O)N[C@@H](Cc1c[nH]cn1)C(=O)N[C@@H](CCC(N)=O)C(=O)N[C@@H](CCCCNC(=N)N)C(=O)N1CCCC1(C)C(=O)N[C@@H](CCCCN)C(=O)NC(C)(Cc1ccccc1)C(N)=O (stereo partly drawn) [Seq. ID. 34] (H-[Ac5c]V[Ac5c]EIQ[ξαMePhe(2-F)][Nle]HQ[hArg][ξαMeP]K[ξαMeF]-NH2),1,77,(6) h,41,15,(8) h,8,70,–,–,–,–
"CCCC[C@H](NC(=O)C(C)(Cc1ccccc1F)NC(=O)[C@H](CCC(N)=O)NC(=O)[C@@H](NC(=O)[C@H](CCC(=O)O)NC(=O)C(C)(C)NC(=O)[C@@H](NC(=O)C(C)(C)N)C(C)C)[C@@H](C)CC)C(=O)N[C@@H](Cc1c[nH]cn1)C(=O)N[C@@H](CCC(N)=O)C(=O)N[C@@H](CCCCNC(=N)N)C(=O)NC(C)(C)C(=O)NC(C)(C)C(=O)NC(C)(Cc1c(F)cccc1F)C(N)=O (stereo partly drawn) [Seq. ID. 182] (H-[Aib]V[Aib]EIQ[ξαMePhe(2-F)][Nle]HQ[hArg][Aib][Aib][ξαMePhe(2,6-F2)]-NH2)",–,26,–,00,00,–,> 24,0,(5) h,> 24,> 24,–
CCCCC(C)(NC(=O)[C@H](CC(C)C)NC(=O)[C@H](CCC(N)=O)NC(=O)[C@@H](NC(=O)[C@H](CCC(=O)O)NC(=O)C(C)(C)NC(=O)[C@@H](NC(=O)C1(N)CC1)C(C)C)[C@@H](C)CC)C(=O)N[C@@H](Cc1c[nH]cn1)C(=O)N[C@@H](CCC(N)=O)C(=O)N[C@@H](CCCCNC(=N)N)C(=O)N[C@@H](C)C(=O)N[C@@H](CCCCNC(=N)N)C(=O)NC(C)(Cc1c[nH]c2ccccc12)C(=O)N[C@@H](CCCc1ccccc1)C(N)=O (stereo partly drawn) [Seq. ID. 945] (H-[Ac3c]V[Aib]EIQL[ξαMeNle]HQ[hArg]A[hArg][ξαMeW][hhPhe]-NH2),0.5,100,–,100,100,–,–,75,–,0.5,0.5,(9) h
CCCC[C@H](NC(=O)C(C)(Cc1ccccc1F)NC(=O)[C@H](CCC(N)=O)NC(=O)[C@@H](NC(=O)[C@H](CCC(=O)O)NC(=O)C(C)(C)NC(=O)[C@@H](NC(=O)C1(N)CCCC1)C(C)C)[C@@H](C)CC)C(=O)N[C@@H](Cc1c[nH]cn1)C(=O)N[C@@H](CCC(N)=O)C(=O)N[C@@H](CCCCNC(N)=O)C(=O)N[C@@H](C)C(=O)N[C@@H](CCCNC(N)=O)C(=O)NC(C)(Cc1ccccc1F)C(N)=O (stereo partly drawn) [Seq. ID. 411] (H-[Ac5c]V[Aib]EIQ[ξαMePhe(2-F)][Nle]HQ[hCit]A[Cit][ξαMePhe(2-F)]-NH2),1,81,(6) h,45,14,(8) h,8,77,–,–,–,–
"CCCC[C@H](NC(=O)C(C)(Cc1c(F)cccc1F)NC(=O)[C@H](CCC(N)=O)NC(=O)[C@@H](NC(=O)[C@H](CCC(=O)O)NC(=O)C(C)(C)NC(=O)[C@@H](NC(=O)C(C)(C)N)C(C)C)[C@@H](C)CC)C(=O)N[C@@H](Cc1c[nH]cn1)C(=O)N[C@@H](CCC(N)=O)C(=O)NC(C)(Cc1c(F)cccc1F)C(=O)NC(C)(C)C(=O)NC(C)(Cc1c(F)cccc1F)C(=O)NC(C)(Cc1ccccc1F)C(N)=O (stereo partly drawn) [Seq. ID. 510] (H-[Aib]V[Aib]EIQ[ξαMePhe(2,6-F2)][Nle]HQ[ξαMePhe(2,6-F2)][Aib][ξαMePhe(2,6-F2)][ξαMePhe(2-F)]-NH2)",2,80,–,00,41,–,> 24,0,–,> 24,4,–
"CCCCC(C)(NC(=O)[C@H](CC(C)C)NC(=O)[C@H](CCC(N)=O)NC(=O)[C@@H](NC(=O)[C@H](CCC(=O)O)NC(=O)C(C)(C)NC(=O)[C@@H](NC(=O)C(C)(C)NC(=O)[C@@H](N)C(C)C)C(C)C)[C@@H](C)CC)C(=O)N[C@@H](Cc1c[nH]cn1)C(=O)N[C@@H](CCC(N)=O)C(=O)N[C@@H](CCCCNC(=N)N)C(=O)N[C@@H](C)C(=O)N[C@@H](CCCCNC(=N)N)C(=O)NC(C)(Cc1ccc(-c2ccc(OC)cc2CC)cc1)C(=O)N[C@@H](CCCc1ccccc1)C(N)=O (stereo partly drawn) [Seq. ID. 915] (H-V[Aib]V[Aib]EIQL[ξαMeNle]HQ[hArg]A[hArg][ξαMeBip(2'-Et,4'-OMe)][hhPhe]-NH2)",0.5,100,–,100,100,–,–,80,–,0.5,0.5,(9) h
"CCCC[C@H](NC(=O)C(C)(Cc1ccccc1F)NC(=O)[C@H](CCC(N)=O)NC(=O)[C@@H](NC(=O)[C@H](CCC(=O)O)NC(=O)C(C)(C)NC(=O)[C@@H](NC(=O)C1(N)CCCC1)C(C)C)[C@@H](C)CC)C(=O)N[C@@H](Cc1c[nH]cn1)C(=O)N[C@@H](CCC(N)=O)C(=O)N[C@@H](CCCN)C(=O)N[C@@H](C)C(=O)NC(C)(Cc1c(F)cccc1F)C(=O)NC(C)(Cc1ccccc1F)C(N)=O (stereo partly drawn) [Seq. ID. 315] (H-[Ac5c]V[Aib]EIQ[ξαMePhe(2-F)][Nle]HQ[Orn]A[ξαMePhe(2,6-F2)][ξαMePhe(2-F)]-NH2)",0.5,100,–,100,100,–,–,71,–,0.5,0.5,(9) h
CCCC[C@H](NC(=O)C(C)(Cc1ccccc1F)NC(=O)[C@H](CCC(N)=O)NC(=O)[C@@H](NC(=O)[C@H](CCC(=O)O)NC(=O)C(C)(C)NC(=O)[C@@H](NC(=O)C(C)(C)N)C(C)C)[C@@H](C)CC)C(=O)N[C@@H](Cc1c[nH]cn1)C(=O)N[C@@H](CCC(N)=O)C(=O)N[C@@H](CCCCNC(=N)N)C(=O)N1CCCC1(C)C(=O)N[C@@H](CCCCN)C(=O)NC(C)(Cc1ccccc1)C(N)=O (stereo partly drawn) [Seq. ID. 25] (H-[Aib]V[Aib]EIQ[ξαMePhe(2-F)][Nle]HQ[hArg][ξαMeP]K[ξαMeF]-NH2),1,83,(6) h,46,12,(8) h,8,75,–,–,–,–
